Data taken from US4220795A, “Cyclobutyl substituted derivatives of prostaglandin analogs” (Miles Laboratories, Inc., priority 1978, dated 1980).
“Also recorded” adds a separate entry of the source.

Tests used:
[1] = test system: human platelet aggregation (collagen-induced, platelet rich plasma); conditions: compared with compounds of Formula III; cited from earlier work
[2] = test system: smooth muscle of the vas deferens; conditions: mammalian male reproductive system; cited from earlier work
[3] = test system: female reproductive system; conditions: cited from earlier work
gastric secretion = test: Effects on Gastric Secretion in the Rat (Test B); format: in vivo; conditions: pylorus ligated, s.c. 2 x 1.5 mg/kg, 4 hr
Description: B. Evaluation of the Effects of Prostaglandin Analogs III on Gastric Secretion in the Rat
A procedure based on that described by Lipmann (J. Pharm. Pharmacol., 21:335 [1968]) was used to assess the influence of test compounds on gastric secretion. Rats of one sex weighing 150 to 200 g were randomly divided into groups of six animals each and fasted for 48 hr previous to the experiments, water being available ad limitum. The animals were anesthetized with ether, the abdomen was opened through a midline incision and the pylorus was ligated. Test compounds were diluted from stock solution so as to administer a dose of 1.5 mg/kg in a volume equivalent to 1 ml/kg. Subcutaneous injections were applied immediately after surgery and again 2 hr later, so that a total dose of 3.0 mg/kg was administered. Dilutions were made with phosphate buffer (pH 7.38) as recommended by Lee et al. (Prostaglandins 3:29 [1973]), in order to insure adequate stability of drugs at the subcutaneous depot. Each compound was tested in one group of rats; an additional control group received only the vehicle.
Four hr after pyloric ligation the animals were killed with ether, the cardias ligated and the stomachs removed. The volume of gastric secretion was measured and the contents centrifuged at 5000 rpm for 10 min. Total acid in the supernatant was titrated against a 0.1 N sodium hydroxide solution and the amount expressed in mEq.
Volume and total acid values of the treated group were compared with those of the controls by the "T" test. Anti-secretory activity was scored according to the following scale: […]

rat uterus = test: Effects on the Rat Uterus (Test F); conditions: rat uterus segments, 0.001 to 10.0 mcg/ml, 29° C.
Method: F. Evaluation of the Effects of Prostaglandin Analogs III on the Rat Uterus
The uterine stimulant effect of test compounds is determined in segments of uterus obtained from rats (140-160 g) pretreated subcutaneously with 1 mg/kg of diethylstibesterol 18 hr before the experiment. The tissues are placed in 10 ml chambers filled with de-Jalon solution at 29° C. and bubbled with 95% O2 and 5% CO2, and prepared for isometric recording with force displacement transducers. Preparations are stretched to an initial tension of 1 g and are left undisturbed for 30 min, after which two responses to 1 mcg/ml of carbachol added to the bath at a 10 min interval, are obtained (the value of the second response is recorded). Responses to increasing concentrations of the test compound (0.001 to 10.0 mcg/ml with one log intervals) are then recorded every 10 min. Preparations are washed four times after each response. All doses of drugs are administered in a 0.1 ml volume. Since it has been observed that the magnitude of the second response to carbachol, which is approximately 10% greater than the first, is close to the maximal response of the tissue, such value is taken as a measure of the sensititity of the particular segment. Responses to each concentration of the test compound are expressed in terms of percentage of the second response to carbachol and the ED50 (dose producing a response of 50% that of carbachol) is calculated graphically. Activity is scored according to the following scale: […]

femoral blood flow = test: Effects on Femoral Blood Flow in the Dog (Test C); format: in vivo, dog (mongrel); conditions: anesthetized dog, intraarterial 0.001 to 10 mcg
Method: C. Evaluation of the Effects of Prostaglandin Analogs III on the Femoral Blood Flow in the Dog
The peripheral vasodilator or constrictor effects of test compounds were determined in mongrel dogs of either sex, weighing between 10 and 20 kg anesthestized intravenously with 35 mg/kg of sodium pentobarbital. An external iliac artery was dissected immediately above the femoral arch for a length of approximately 5 cm and a previously calibrated, non-connulating electromagnetic flowmeter sensor with a lumen between 2.5 and 3.5 mm was placed snugly around the vessel. Cannulas were placed in a branch of the artery arising distally to the location of the flowmeter sensor for intraarterial drug administrations, in the contralateral femoral artery for systemic blood pressure recordings and in the trachea for artificial respiration with room air. Femoral blood flow and systemic blood pressure were continuously recorded with an electromagnetic flowmeter and pressure transducer, respectively.
After an adequate control period, test compounds were injected intraarterially at one log-spaced doses ranging from 0.001 to 10 mcg., in a volume of 0.5 ml and at 5 to 10 min intervals. Maximum changes in bloodflow, as well as any variations in blood pressure, were tabulated for each dose in absolute values (ml/min and mmHg). The calculations were made taking as control values those existing immediately before administration of each dose. The direction of the observed change (+ for increase and - for decrease) was also noted. The dose changing bloodflow by 100 ml/min (ED100 ml/min) was calculated graphically and was used for scoring activity as follows: […]

blood pressure = test: Effects on Blood Pressure and Heart Rate in the Anesthetized Cat (Test D); format: in vivo; conditions: i.v. 0.01 to 10.0 mcg/kg, scored on hypotension
Method: D. Evaluation of the Effects of Prostaglandin Analogs III on Blood Pressure and Heart Rate in the Anesthetized Cat
The acute effects of test compounds on blood pressure and heart rate were determined in cats of either sex anesthetized with a mixture of pentobarbital sodium (35 mg/kg, i.v.) and barbital sodium (100 mg/kg, i.v.). Cannulas were placed in the trachea to allow adequate spontaneous ventilation, in a femoral artery for blood pressure recording with a strain gage transducer, and in a saphenous vein for drug administration. Heart rate was recorded by means of a cardiotachometer driven by the R wave of the electrocardiogram. After a period of 10 min of stable recordings of blood pressure and heart rate, the test compound was administered intravenously at doses increasing from 0.01 to 10.0 mcg/kg, spaced one log and injected at 10 min intervals. All doses were injected in a volume of 0.1 ml/kg. Modifications of blood pressure and heart rate induced by the test compound were expressed both in absolute units (mmHg and beats/min) and as percent of values recorded immediately before administration of each dose. Biphasic responses were tabulated in the order in which they occur. The direction of the observed changes was also noted (+ for increase and - for decrease).
Activity of compounds in this test was judged only on the basis of the degree of hypotension observed. Thus, the ED50 mmHg (dose decreasing blood pressure by 50 mmHg) was calculated graphically and the compound scored according to the following scale: […]

[4] = test system: blood pressure (hypertensive rat); test: Effects on Blood Pressure in the Hypertensive Rat (Test E); format: in vivo; set-up: key: 0: Not significant at any time interval; 1: Significant at one time interval; 2: Significant at two time intervals; 3: Significant at three time intervals; 4: Significant at all four intervals; conditions: 1 mg/kg intraperitoneal, 2, 4, 6 and 8 hr
Method: E. Evaluation of the Effects of Prostaglandin Analogs III on Blood Pressure in the Hypertensive Rat
The acute antihypertensive activity of test compounds is determined in rats made hypertensive by the procedure of Grollman (A. Proc. Soc. Exper. Biol. Med., 57:102, [1944]). Female rats weighing between 60 and 100 g are anesthetized with ether, the right kidney approached through a flank retroperitoneal incision, decapsulated and tied with a figure-of-eight ligature. The animals are left to recover and two weeks later are again anesthetized and the contralateral kidney removed. Four weeks after the second operation the rats are subjected to indirect blood pressure measurements and those showing systolic pressure values greater than 160 mmHg are selected for drug testing.
Blood pressure is measured in the tail with an inflatable occluding cuff placed at the base of the extremity and a pulse detector located distally. The cuff is inflated to approximately 300 mmHg and is slowly deflated until pulsations appear, indicating the level of systolic pressure; diastolic pressure is not recorded by this procedure. All measurements are carried out in unanesthetized, unsedated animals maintained in a warm environment during the recording procedure and for at least 6 hr before. In all cases, three pressure readings are obtained in succession and mean values are calculated thereof.
Experiments are carried out in groups of five hypertensive rats in which systolic pressure is determined immediately before and 2, 4, 6 and 8 hr after the intraperitoneal administration of the test compound at a dose of 1 mg/kg. Drugs are diluted from stock solutions with phosphate buffer (Lee et al., Prostaglandins 3:29 [1973]), so as to inject this quantity in a volume of 1 ml/kg. Changes from control blood pressure values are calculated for each interval both in mmHg and in per-cent, and evaluated for significance by means of Wilcoxon's signed rank test (Wilcoxon and Wilcox, Some rapid approximate statistical procedures, Lederle Laboratories, Pearl River [1964]).

| Structure (SMILES) | Activity value, Test B: Inhibition of a Rodent Gastric Secretion (% decrease in acidity) (gastric secretion) | Activity value, Test F: Effects on Rat Uterus (ED50, response of 50% that of carbachol) (rat uterus) | other results |
| --- | --- | --- | --- |
| CCCCC[C@H](O)/C=C/[C@H]1[C@H](O)CC(=O)[C@@H]1CCCCCCC(=O)O [PGE1] | – | – | inhibition of platelet aggregation, natural prostaglandins, in words [1]: displays a similar activity; contraction of the vas deferens [2]: contracts the smooth muscle of the vas deferens |
| CCCCC[C@H](O)/C=C/[C@@H]1[C@@H](C/C=C\CCCC(=O)O)[C@@H](O)C[C@H]1O [PGF2] | – | – | effects on uterus, fertility, gestation and labor [3]: exerts potent oxytocic effects in inducing labor |
| CCCCC[C@H](O)/C=C/[C@@H]1[C@@H](C/C=C\CCCC(=O)O)[C@@H](O)C[C@H]1O [PGF2α] | – | – | effects on uterus, fertility, gestation and labor [3]: has contragestational effects; also recorded: induces spontaneous abortions in early pregnancy |
| CCC1CC(C(/C=C/C2C=CC(=O)C2CCCCCCC(=O)OC)OC(C)=O)C1 (centres unmarked) [TR-4281, Methyl 15RS-acetoxy-16,18-methano-9-oxoprosta-10,13E-dien-1-oate] | 0 (<26) | 0 (>10) | – |
| CCC1CC([C@H](O)/C=C/C2C(O)CC(O)C2CCCCCCC(=O)OC)C1 (stereo partly drawn) [TR-4624, Methyl 16,18-methano-9α,1α,15S-trihydroxyprost-13E-en-1-oate] | 0 (<26) | 0 (>10) | Activity value, Test C: Increase in Canidae Femoral Blood Flow (ED100 ml/min) (femoral blood flow): 0 (>10.0); Activity value, Test D: Increase in Normal Feline Blood Pressure and Heart Rate (ED50 mmHg) (blood pressure): 0 (>10.1); Activity value, Test E: Effects on Blood Pressure in Hypertensive Rat (blood pressure decrease) [4]: 0 |
| CCC1CC([C@H](O)/C=C/C2C(O)CC(O)C2CCCCCCC(=O)OC)C1 (stereo partly drawn) [TR-4625, Methyl 16,18-methano-9β,11α,15S-trihydroxyprost-13E-en-1-oate] | 0 (<26) | 0 (>10) | Activity value, Test C: Increase in Canidae Femoral Blood Flow (ED100 ml/min) (femoral blood flow): 0 (>10.0); Activity value, Test D: Increase in Normal Feline Blood Pressure and Heart Rate (ED50 mmHg) (blood pressure): 0 (>10.1); Activity value, Test E: Effects on Blood Pressure in Hypertensive Rat (blood pressure decrease) [4]: 0 |
| CCC1CC([C@H](O)/C=C/C2C(O)CC(O)C2CCCCCCCO)C1 (stereo partly drawn) [TR-4627, 16,18-Methanoprost-13E-en-1,9β,11α,15S-tetraol] | 0 (<26) | 0 (>10) | – |
| CCC1CC(C)([C@@H](O)/C=C/C2C=CC(=O)C2CCCCCCC(=O)OC)C1 (stereo partly drawn) [TR-4695, Methyl 15S-hydroxy-16,18-methano-16-methyl-9-oxoprosta-10,13E-dien-1-oate] | 0 (<26) | 0 (>10) | – |
